Literature values, collected in US20210379148A1, “REGULATING MUSCLE PHYSIOLOGY AND ENERGY METABOLISM USING CRYM” (University Of Maryland, Baltimore, priority 2020, published 2021).
Like-named read-outs stand apart in the source and are kept apart here.

Legend:
CRYM protein = conditions: chemical alone
[1] = test system: skeletal muscles (soleus, EDL); conditions: rats, thyrotoxic doses of T3 and T4; for effect on slow twitch soleus muscle: without accompanying changes in contractile velocity
[2] = target: μ-crystallin ketimine reductase (Homo sapiens, UniProt Q14894); conditions: read-out: K1, inhibition of μ-crystallin's activity as a ketimine reductase
[3] = target: thyroid hormone receptors (TR) α and β; conditions: read-out: KD, binding to thyroid hormone receptors (TR) α and β
[4] = NOG protein co-treated with entinostat, dorsomorphin and 4-(5-benzo(1,3)dioxol-5-yl-4-pyridin-2-yl-1H-imidazol-2-yl)benzamide
[5] = Methionine deficiency co-treated with Choline deficiency co-treated with Folic Acid deficiency

μ-crystallin ketimine reductase, sequence (Q14894 whole entry): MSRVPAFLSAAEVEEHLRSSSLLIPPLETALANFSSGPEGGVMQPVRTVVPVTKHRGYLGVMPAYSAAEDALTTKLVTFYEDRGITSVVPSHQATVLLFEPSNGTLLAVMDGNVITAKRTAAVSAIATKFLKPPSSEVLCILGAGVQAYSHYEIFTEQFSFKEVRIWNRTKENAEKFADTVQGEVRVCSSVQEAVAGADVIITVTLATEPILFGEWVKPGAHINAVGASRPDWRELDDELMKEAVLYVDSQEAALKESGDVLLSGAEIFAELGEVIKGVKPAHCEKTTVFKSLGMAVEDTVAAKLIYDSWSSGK

| Compound | expression of CRYM mRNA (CRYM mRNA; chemical alone) | other results |
| --- | --- | --- |
| C[C@@H]1Cc2c(Cl)cc(C(=O)N[C@@H](Cc3ccccc3)C(=O)O)c(O)c2C(=O)O1 [ochratoxin A] | – | expression of CRYM protein (CRYM protein): ochratoxin A results in increased expression of CRYM protein |
| [K+].[K+].[O]=[Cr](=[O])([O-])[O][Cr](=[O])(=[O])[O-] [Potassium Dichromate] | – | expression of CRYM mRNA (CRYM mRNA): Potassium Dichromate results in increased expression of |
| Clc1cnc(Oc2ccc(Oc3ncc(Cl)cc3Cl)cc2)c(Cl)c1 [1,4-bis(2-(3,5-dichloropyridyloxy))benzene] | increased expression of CRYM mRNA | – |
| C=CC=C [1,3-butadiene] | 1,3-butadiene results in increased expression of CRYM | – |
| NC(=O)c1ccc(-c2nc(-c3ccccn3)c(-c3ccc4c(c3)OCO4)[nH]2)cc1 [4-(5-benzo(1,3)dioxol-5-yl-4-pyridin-2-yl-1H-imidazol-2-yl)benzamide] | – | expression of CRYM mRNA (CRYM mRNA; [4]): pyridin-2-yl-1H-imidazol-2-yl)benzamide] results in increased |
| CNC(=O)O[C@@H](CC(C)C)c1nc([C@H]2OC(=O)/C=C/C/C(C)=C/[C@@H](O)[C@@H](C)\C=C(C)/C=C(C)\C=C\[C@@H](O)[C@H](C)[C@H](OC)/C(C)=C/C=C/[C@@H]2C)cs1 [archazolid B] | archazolid B results in increased expression of CRYM mRNA | – |
| CCCCC=O [pentanal] | pentanal results in increased expression of CRYM mRNA | – |
| CCCC(CCC)C(=O)O [Valproic Acid] | Valproic Acid results in increased expression of CRYM | – |
| c1ccc2c(c1)cc1ccc3cccc4ccc2c1c34 [Benzo(a)pyrene] | Benzo(a)pyrene results in increased expression of CRYM | – |
| O=c1c(O)c(-c2ccc(O)c(O)c2)oc2cc(O)cc(O)c12 [Quercetin] | Quercetin results in increased expression of CRYM mRNA | – |
| Nc1nc2ncc(CNc3ccc(C(=O)N[C@@H](CCC(=O)O)C(=O)O)cc3)nc2c(=O)[nH]1 [Folic Acid] | – | expression of CRYM mRNA (CRYM mRNA; [5]): treated with Folic Acid deficiency] results in increased |
| CCCC=O [butyraldehyde] | butyraldehyde results in increased expression of CRYM | – |
| c1ccc2c(c1)ccc1cc3c(ccc4ccccc43)cc12 [1,2,5,6-dibenzanthracene] | 1,2,5,6-dibenzanthracene results in increased expression of | – |
| O=C1[O][Pt]2([NH][C@@H]3CCCC[C@H]3[NH]2)[O]C1=O [Oxaliplatin] | Oxaliplatin results in increased expression of CRYM mRNA | expression of CRYM mRNA (CRYM mRNA; Oxaliplatin co-treated with Topotecan): [Oxaliplatin co-treated with Topotecan] results in increased |
| Clc1cc2c(cc1Cl)Oc1cc(Cl)c(Cl)cc1O2 [Tetrachlorodibenzodioxin] | Tetrachlorodibenzodioxin results in increased expression of | – |
| Nc1ccccc1NC(=O)c1ccc(CNC(=O)OCc2cccnc2)cc1 [entinostat] | entinostat results in increased expression of CRYM mRNA | expression of CRYM mRNA (CRYM mRNA; [4]): pyridin-2-yl-1H-imidazol-2-yl)benzamide] results in increased |
| CN[C@@H](C)Cc1ccccc1 [Methamphetamine] | – | expression of CRYM protein (CRYM protein): Methamphetamine results in increased expression of CRYM |

| Compound | expression of CRYM mRNA (CRYM mRNA; chemical alone) | other results |
| --- | --- | --- |
| Oc1ccc(Cc2ccc(O)cc2)cc1 [bisphenol F] | bisphenol F results in increased expression of CRYM mRNA | – |
| CCCCOC(=O)c1ccccc1C(=O)OCCCC [Dibutyl Phthalate] | Dibutyl Phthalate results in increased expression of CRYM | – |
| CSCC[C@H](N)C(=O)O [Methionine] | – | expression of CRYM mRNA (CRYM mRNA; [5]): treated with Folic Acid deficiency] results in increased |
| CN[C@@H](Cc1c[nH]c2ccccc12)C(=O)O [abrine] | abrine results in increased expression of CRYM mRNA | – |
| O=S(=O)(c1ccc(O)cc1)c1ccc(O)cc1 [bis(4-hydroxyphenyl)sulfone] | bis(4-hydroxyphenyl)sulfone results in increased expression | – |
| CC1=C(/C=C/C(C)=C/C=C/C(C)=C/C(=O)Nc2ccc(O)cc2)C(C)(C)CCC1 [Fenretinide] | Fenretinide results in increased expression of CRYM mRNA | – |
| CCO [Ethanol] | Ethanol results in increased expression of CRYM mRNA | – |
| CCCc1cc(=O)[nH]c(=S)[nH]1 [Propylthiouracil] | Propylthiouracil results in increased expression of CRYM | – |
| CC1=C(/C=C/C(C)=C/C=C/C(C)=C/C(=O)O)C(C)(C)CCC1 [Tretinoin] | Tretinoin results in increased expression of CRYM mRNA | – |
| CC[C@@]1(O)C(=O)OCc2c1cc1n(c2=O)Cc2cc3c(CN(C)C)c(O)ccc3nc2-1 [Topotecan] | Topotecan results in increased expression of CRYM mRNA | – |
| ClC(Cl)(Cl)Cl [Carbon Tetrachloride] | Carbon Tetrachloride results in increased expression of | – |
| N[C@@H](Cc1cc(I)c(Oc2ccc(O)c(I)c2)c(I)c1)C(=O)O [T3, triiodothyronine] | – | effect on fast twitch extensor digitorum longus (EDL) muscles [1]: no effect; effect on slow twitch soleus muscle [1]: shift in slow twitch soleus muscle from slow to faster characteristics |
| C[C@]12CCC(=O)C[C@@H]1CC[C@@H]1[C@@H]2CC[C@]2(C)[C@@H](O)CC[C@@H]12 [Dihydrotestosterone] | – | expression of CRYM mRNA (CRYM mRNA): Dihydrotestosterone results in increased expression of CRYM |
| CCC=O [propionaldehyde] | propionaldehyde results in increased expression of CRYM | – |
| CC(N)Cc1ccccc1 (stereo not drawn) [Amphetamine] | Amphetamine results in increased expression of CRYM | – |
| N[C@@H](Cc1cc(I)c(Oc2cc(I)c(O)c(I)c2)c(I)c1)C(=O)O [T4] | – | effect on fast twitch extensor digitorum longus (EDL) muscles [1]: no effect; effect on slow twitch soleus muscle [1]: shift in slow twitch soleus muscle from slow to faster characteristics; Ki [2]: 0.75 nM; Kd [3]: 2 nM |
